“Also recorded” adds a separate entry of the source.
Experiments:
[1] = system: transition of primary CPPs to secondary CPPs; assay: calciprotein particle (CPP) maturation time in human serum (Pasch test, FIG. 1); conditions: human pooled serum, 37° C., nephelometer up to 600 minutes
Text: The y-axis indicates the half-maximal transition time (T50) in minutes of primary CPPs to secondary CPPs. IP6: myo-inositol hexakisphosphate (Biosynth); IS6: myo-inositol hexakissulfate (Sigma); IP2S4: 4,6-di-(O-phosphate)-myo-inositol 1,2,3,5-tetra-O-sulfate; IT2S4: 4,6-di-(O-thiophosphate)-myo-inositol 1,2,3,5-tetra-O-sulfate; IP5-PEG: 2-PEG(2000)-myo-inositol pentakisphosphate.
(§1) The inventors performed an in vitro assay that measures the propensity for calcification of human serum and has been clinically validated as a predictor of all-cause mortality in CKD patients and renal transplant recipients (as described in Pasch, Journal of the American
Society of Nephrology 23, 1744-1752, 2012). The experiment was carried out by mixing a calcium solution, human pooled serum, the test compound at the final concentration indicated and a phosphate solution, and the transition time of primary to secondary CPPs was measured at 37° C. using a nephelometer for up to 600 minutes.

[2] = system: transition of primary CPPs to secondary CPPs; assay: CPP maturation time in human serum, similar test with test compounds added last (FIG. 2); conditions: test compounds added to the reaction mixture last
Experimental: as §1
Society of Nephrology 23, 1744-1752, 2012). […], and the transition time of primary to secondary CPPs was measured at 37° C. using a nephelometer for up to 600 minutes.

[3] = In-solution screening of CaP precipitation and aggregation in artificial renal tubular fluid (RTF); type: physicochemical; conditions: 9 mM phosphate, 8 mM calcium, 4 h
Experimental: (§2) Effects of (A) OEG2-IP5, (B) OEG11-IP5, (C) (OEG2)2-IP4, (D) (OEG11)2-IP4 and (E) OEG8-(IP5)2. on CaP precipitation in RTF spiked with 9 mM disodium phosphate and 8 mM calcium chloride were assessed by light microscopy followed by automated image analysis at t=4 h. Quantification of the total area covered with CaP precipitates/total area field of view (N=3, mean+SD, normalized to the control).
as §2, with “mean size of aggregates/field” for “total area covered with CaP precipitates/total area field”, “view normalized to the ctrl” for “view”
Overview table showing the minimal concentration of compound (FIG. 3 for the chemical structures) required to achieve complete inhibition of CaP precipitation (total area covered with crystals <10% of total area control); and minimal concentration required to prevent CaP crystal aggregation in the CaP screening assay (CaP aggregate size <50% of aggregate size control) (N=3).
An artificial renal tubular fluid (RTF) with a final composition of 0.05 mM oxalate, 0.005 mM sulphate, 408 mM sodium, 424 mM chloride, 0.26 mM potassium, 4 mM magnesium and 0.2 mM citrate in double distilled water was prepared according to a literature report (Fasano, J. M. et al., Kidney Int. 59, 169-178. DOI: 10.1046/j. 1523-1755.2001.00477.x, 2001). The solution was filtered with a 0.45-μm syringe filter. Twenty mM Bis-Tris buffer was added to the reported protocol to ensure pH stability throughout experiments and pH was set to 7.2. The artificial RTF was stored at room temperature for up to four months. Stock solutions of 0.25 M phosphate and 1 M calcium were prepared in double distilled water and were stored separately at −20° C.
Twenty-x final concentration phosphate, 20× final concentration calcium and 10× final concentration compound dilutions were prepared in RTF. Assay mixture consisting of 80% RTF, 10% compound dilution, 5% phosphate dilution and 5% calcium dilution was prepared in Eppendorf tubes as follows. RTF (320 μL) was mixed with 20 μL phosphate dilution (final concentration of 9 mM), 40 μL compound dilution and 20 μL calcium dilution (final concentration of 8 mM). The assay mixture was vortexed after adding each component and 380 μL of the mixture were immediately added to 8-well glass bottom slides and incubated for 4 hat RT. CaP precipitation was assessed using a Leica DM 6000B microscope (Leica Microsystems, Wetzlar, Germany) in brightfield mode. For quantification 3 wells/condition with 3-4 images/well were imaged with a 40× objective. The total area covered with CaP deposits in percentage of the field of view and the mean size of CaP aggregates were determined.
In a first step, the influence of selected IP6 analogues (FIG. 5) on CaP precipitation and growth was assessed in vitro using artificial renal tubular fluid (RTF) (Table 1). In a previous study, the inventors investigated CaP protein particle formation in serum. However, an important difference to cardiovascular calcification lies in the extremely low protein content of the renal tubular fluid vs. the high abundance of proteins in blood, which can stabilize amorphous particles. Two cut-offs were chosen for assessing efficacy. First, complete inhibition was defined as a >90% reduction of detected CaP precipitates compared to the control sample without compound. Second, inhibition of CaP aggregation was defined as a >50% reduction of the mean size of aggregates when compared to the control.

[4] = system: RPTEC/TERT 1 human proximal tubule cells; assay: Imaging assay of CaP adhesion/deposition and cellular changes on RPTEC monolayers; type: cell-based; conditions: RPTEC, 7 mM phosphate, 5 mM calcium, 24 h
Text: (A) Heatmap and hierarchical clustering of extracted image features. (B) Selected single features describing cellular changes upon increasing (OEG2)2-IP4 concentrations are depicted. Total cell count, dead cell count, single cell area and single cell solidity, a measure of cell compactness, are shown. (C) Selected single features describing changes in the CaP deposition and membrane pattern upon increasing (OEG2)2-IP4 concentrations are depicted. The total area of the binary calcein staining, colorimetric quantification of calcium content extracted from the monolayer, the maximum intensity of the calcein fluorescence, structural similarity index metric (SSIM) and the correlation of the CellMask channel image are shown. (D) Example brightfield, calcein, CellMask and EthD channel images and two zoomed-in regions of interests (ROI) of RPTEC treated with 13 μM (OEG2)2-IP4 are shown. Mean scaled values per individual experiment are plotted (N=3). Pos.ctrl presents treatment with 5/7 mM Ca/P, neg.ctrl presents medium without Ca/P spiking (=1/1 mM Ca/P present in normal cell medium). Mean of three individual experiments and SD is plotted as grey horizontal and vertical line respectively, one-way ANOVA with Dunnet's multiple comparison between each concentration to pos. ctrl was performed (* p<0.01).
RPTEC/TERT 1 monolayers at confluence were treated with medium spiked with 7 mM disodium phosphate, 5 mM calcium chloride and compound and were incubated for 24 h. The amount of CaP deposits and the extent of cell injury were detected by calcein and EthD staining, respectively. Fluorescence images were quantified using Matlab. Quantification of the area covered with CaP deposition on RPTEC monolayers with (A) OEG2-IP5, (B) OEG11-IP5, (C) (OEG2)2-IP4, and (D) OEG8-(IP5)2 treatment. (N=3, mean+SD, one-way ANOVA with Dunnett's multiple comparison, * p<0.05, ** p<0.01, *** p<0.001).
RPTEC/TERT 1 human proximal tubule cells (RPTEC) were cultured in T75 tissue culture flasks using ProxUp basal medium mixed with ProxUp supplements at 37° C. and 5% CO2 according to manufacturer's recommendations. Cells were used up to passage 30 and regularly tested for Mycoplasma infections. For experiments, RPTEC were cultured in 24-well plates at a seeding density of 150′000 cells/cm^2. Cell viability assessment and cell counting before seeding was performed using an automated cell counter (BioRad TC 20, Hercules, CA, USA).
For the comparison of selected IP6 analogues, ProxUp basal medium was prepared with the selected inhibitor and added to each well. Then, CaP precipitation was induced by direct addition of first, phosphate and second, calcium. Final concentrations of 7 mM phosphate and 5 mM calcium were used. Cells were incubated for 24 h at 37° C. and 5% CO2. Spiked medium was removed, and cells were washed twice with PBS before staining.
For staining, ProxUp basal medium was mixed with calcein (500 nM final concentration), EthD (6 μM final concentration), CellMask stain ([…]) and Hoechst 33342. Staining mixture was added to RPTEC and cells were incubated for 30 min in the dark at 37° C. and 5% CO2. Staining solution was removed, cells were washed with PBS once and ProxUp basal medium was added. Cells were immediately imaged after staining. Images were obtained by epifluorescence microscopy at 37° C., using a Leica CTR6000 microscope. For quantification 3 wells/condition were prepared and 3 images/well were taken. For preliminary adhesion experiments images were taken with a 10× objective, for the imaging assay 20× objective images were taken.
Multichannel images were saved as individual channel images in 8-bit tiff format. For analysis Hoechst channel images were thresholded using the triangle threshold. Touching nuclei of the binary image were further segmented using the watershed algorithm with the distance transform of the binary image as input and local maxima thereof as seeds. […]

Compound: 2-PEG(2000)-myo-inositol pentakisphosphate [Compound 2-PEG-IP5]
- activity on half-maximal transition time (T50) of primary CPPs to secondary CPPs [1]: far more active than any other compound

Compound: COCCOCCO[C@@H]1C(OP(=O)(O)O)[C@H](OCCOCCOC)[C@@H](OP(=O)(O)O)C(OP(=O)(O)O)[C@H]1OP(=O)(O)O (stereo partly shown) [INS-3001]
- activity on transition time of primary to secondary CPPs [2]: more active than IP6; also recorded: more active than the compounds having one PEG moiety

Compound: O=P(O)(O)OC1C(OS(=O)(=O)O)C(OP(=O)(O)O)C(OS(=O)(=O)O)C(OS(=O)(=O)O)C1OS(=O)(=O)O (stereo not shown) [IP2S4, 4,6-di-(O-phosphate)-myo-inositol 1,2,3,5-tetra-O-sulfate]
- activity on half-maximal transition time (T50) of primary CPPs to secondary CPPs [1]: more active than IP6

Compound: O=P(O)(O)OC1[C@@H](OP(=O)(O)O)[C@H](OP(=O)(O)O)C(O)[C@H](OP(=O)(O)O)[C@H]1OP(=O)(O)O (stereo partly shown) [IP5, myo-inositol pentakisphosphate, reference compound]
- concentration at which CaP precipitation was promoted [3]: 30 µM

Compound: O=P(O)(O)O[C@H]1[C@H](OP(=O)(O)O)[C@@H](OP(=O)(O)O)[C@H](OP(=O)(O)O)[C@@H](OP(=O)(O)O)[C@H]1OP(=O)(O)O [IP6, myo-inositol hexakisphosphate, reference compound]
- concentration at which CaP precipitation was promoted [3]: 10 µM

Compound: O=S(=O)(O)OC1C(OS(=O)(=O)O)C(OS(=O)(=O)O)C(OS(=O)(=O)O)C(OS(=O)(=O)O)C1OS(=O)(=O)O (stereo not shown) [IS6, myo-inositol hexakissulfate, reference compound]
- effect on CaP precipitation/crystallization in words [3]: weak inhibitory properties

Compound: O=S(=O)(O)O[C@@H]1[C@@H](OP(O)(O)=S)[C@H](OS(=O)(=O)O)[C@H](OS(=O)(=O)O)[C@H](OS(=O)(=O)O)[C@H]1OP(O)(O)=S [IT2S4, 4,6-di-(O-thiophosphate)-myo-inositol 1,2,3,5-tetra-O-sulfate]
- activity on half-maximal transition time (T50) of primary CPPs to secondary CPPs [1]: more active than IP6

Compound: COCCOCCO[C@@H]1[C@@H](OP(=O)(O)O)[C@H](OP(=O)(O)O)[C@@H](OP(=O)(O)O)[C@@H](OP(=O)(O)O)[C@H]1OP(=O)(O)O [OEG2-IP5]
- concentration for complete inhibition of CaP precipitation (>90% reduction of CaP precipitates vs control) [3]: 30 µM
- concentration for inhibition of CaP aggregation (>50% reduction of mean size of aggregates vs control) [3]: 1 µM
- concentration achieving complete inhibition of CaP adhesion [4]: 50 µM

Compound: COCCOCCOCCOCCOCCOCCOCCOCCOCCOCCOCCO[C@@H]1[C@@H](OP(=O)(O)O)[C@H](OP(=O)(O)O)[C@@H](OP(=O)(O)O)[C@@H](OP(=O)(O)O)[C@H]1OP(=O)(O)O [OEG11-IP5]
- aggregation inhibitory concentration [3]: 300 nM
- concentration achieving complete inhibition of CaP adhesion [4]: 50 µM

Compound: cyclohexane hexacarboxylic acid [IC6, reference compound]
- effect on CaP precipitation/crystallization in words [3]: weak inhibitory properties

From patent publication US12076331B2, “Inositol derivatives for use in pathological crystallization” (ETH Zurich, priority 2015, dated 2024)
